Laboratory results reported in ChEMBL document CHEMBL4007422 (J Med Chem, 2017).
Calls of active or inactive are those of the source. The rule behind the calls is not given here.

How the values were obtained:
[1] = molecular target: 5-hydroxytryptamine receptor 6 (Homo sapiens, UniProt P50406); assay: Displacement of [3H]-LSD from recombinant human 5-HT6 receptor expressed in HEK293 cells after 60 mins; format: cell-based
[2] = molecular target: T1, 5-hydroxytryptamine receptor 1A (Homo sapiens) (UniProt P08908); assay: Displacement of [3H]-8-OH-DPAT from recombinant human 5-HT1A receptor expressed in HEK293 EBNA cell membranes after 120 mins by microbeta scintillation counting analysis
T1 sequence (whole entry): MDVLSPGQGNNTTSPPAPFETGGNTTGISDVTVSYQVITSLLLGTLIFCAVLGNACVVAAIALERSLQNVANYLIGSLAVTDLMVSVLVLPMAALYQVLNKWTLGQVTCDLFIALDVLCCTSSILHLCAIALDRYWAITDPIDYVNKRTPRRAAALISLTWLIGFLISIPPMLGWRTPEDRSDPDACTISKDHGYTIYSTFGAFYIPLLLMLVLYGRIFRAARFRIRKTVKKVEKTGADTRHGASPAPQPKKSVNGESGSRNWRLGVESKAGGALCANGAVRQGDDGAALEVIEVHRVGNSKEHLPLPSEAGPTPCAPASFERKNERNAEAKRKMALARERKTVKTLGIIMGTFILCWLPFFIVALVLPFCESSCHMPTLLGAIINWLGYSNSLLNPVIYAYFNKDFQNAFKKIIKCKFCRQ

[3] = molecular target: T2, 5-hydroxytryptamine receptor 2C (Homo sapiens) (UniProt P28335); assay: Displacement of [3H]-Mesulergine from recombinant human 5-HT2C receptor expressed in HEK293 cell membranes after 180 mins by microbeta scintillation counting analysis
T2 sequence (whole entry): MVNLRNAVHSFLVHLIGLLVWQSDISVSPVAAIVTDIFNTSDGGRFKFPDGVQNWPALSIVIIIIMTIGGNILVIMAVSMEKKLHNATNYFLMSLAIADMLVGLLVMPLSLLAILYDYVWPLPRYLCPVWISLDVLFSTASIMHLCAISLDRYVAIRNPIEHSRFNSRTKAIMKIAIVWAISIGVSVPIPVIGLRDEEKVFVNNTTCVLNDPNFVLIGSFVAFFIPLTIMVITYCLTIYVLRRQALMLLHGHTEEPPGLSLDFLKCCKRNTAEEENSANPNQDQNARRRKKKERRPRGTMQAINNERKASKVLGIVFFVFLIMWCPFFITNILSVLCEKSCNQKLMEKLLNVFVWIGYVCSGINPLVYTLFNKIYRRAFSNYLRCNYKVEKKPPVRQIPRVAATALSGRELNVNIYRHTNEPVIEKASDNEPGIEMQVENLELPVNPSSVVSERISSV

[4] = molecular target: 5-hydroxytryptamine receptor 4 (Homo sapiens) (UniProt Q13639); assay: Displacement of [3H]-GR113808 from recombinant human 5-HT4B receptor expressed in Chem1 cell membranes after 120 mins by microbeta scintillation counting analysis
5-hydroxytryptamine receptor 4 (Homo sapiens), sequence (Q13639 whole entry): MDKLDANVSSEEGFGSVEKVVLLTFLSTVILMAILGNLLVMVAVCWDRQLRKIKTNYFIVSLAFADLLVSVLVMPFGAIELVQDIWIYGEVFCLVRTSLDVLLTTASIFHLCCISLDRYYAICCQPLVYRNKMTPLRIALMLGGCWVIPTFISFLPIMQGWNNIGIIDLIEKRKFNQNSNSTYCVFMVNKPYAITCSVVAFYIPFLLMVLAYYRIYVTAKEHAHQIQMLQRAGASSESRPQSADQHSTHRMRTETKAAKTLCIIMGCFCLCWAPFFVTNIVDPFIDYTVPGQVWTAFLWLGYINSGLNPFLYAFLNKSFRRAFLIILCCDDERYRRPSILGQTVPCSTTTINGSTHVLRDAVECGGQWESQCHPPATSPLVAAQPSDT

[5] = molecular target: 5-hydroxytryptamine receptor 7 (Rattus norvegicus) (UniProt P32305); assay: Binding affinity to recombinant rat 5-HT7 receptor expressed in CHOK1 cells assessed as inhibition of 5-HT stimulated cAMP accumulation after 4 hrs by luciferase reporter gene assay; format: cell-based
5-hydroxytryptamine receptor 7 (Rattus norvegicus), sequence (P32305 whole entry): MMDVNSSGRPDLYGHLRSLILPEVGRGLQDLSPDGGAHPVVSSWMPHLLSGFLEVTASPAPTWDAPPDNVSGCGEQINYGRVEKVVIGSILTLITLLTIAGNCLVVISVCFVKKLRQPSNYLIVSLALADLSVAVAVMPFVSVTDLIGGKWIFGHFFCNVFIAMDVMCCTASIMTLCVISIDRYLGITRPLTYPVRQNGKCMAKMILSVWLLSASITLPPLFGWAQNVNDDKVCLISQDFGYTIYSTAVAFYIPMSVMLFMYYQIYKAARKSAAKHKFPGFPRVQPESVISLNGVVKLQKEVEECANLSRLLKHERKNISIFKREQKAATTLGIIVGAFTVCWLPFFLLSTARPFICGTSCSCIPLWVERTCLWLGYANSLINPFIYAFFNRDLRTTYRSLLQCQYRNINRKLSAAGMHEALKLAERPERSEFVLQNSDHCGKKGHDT

[6] = molecular target: Cytochrome P450 2D6 (Homo sapiens, UniProt P10635); assay: Inhibition of CYP2D6 in human liver microsomes in presence of NADPH by LC-MS/MS analysis
Cytochrome P450 2D6, sequence (P10635 whole entry): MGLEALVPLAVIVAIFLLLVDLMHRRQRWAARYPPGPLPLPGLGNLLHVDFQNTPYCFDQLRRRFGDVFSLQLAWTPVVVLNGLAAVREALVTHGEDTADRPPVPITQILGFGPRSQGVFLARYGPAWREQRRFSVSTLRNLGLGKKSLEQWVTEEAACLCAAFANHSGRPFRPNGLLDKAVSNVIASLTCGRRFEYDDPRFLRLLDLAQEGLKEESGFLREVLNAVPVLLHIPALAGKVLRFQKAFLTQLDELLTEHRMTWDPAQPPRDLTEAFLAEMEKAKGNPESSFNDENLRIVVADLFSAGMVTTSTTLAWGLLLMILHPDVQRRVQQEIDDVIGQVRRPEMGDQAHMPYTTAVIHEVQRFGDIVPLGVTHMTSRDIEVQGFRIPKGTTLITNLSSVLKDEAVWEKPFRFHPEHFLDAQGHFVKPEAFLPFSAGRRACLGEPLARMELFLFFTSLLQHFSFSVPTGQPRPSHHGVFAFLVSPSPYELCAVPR

[7] = Cmax in Wistar rat at 10 mg/kg, po by LC-MS/MS analysis; format: ADME, organism-based; design: dose 10 mg/kg, route oral; details: in vivo
[8] = AUC (0 to t) in Wistar rat at 10 mg/kg, po by LC-MS/MS analysis; format: ADME, organism-based; details: Wistar, in vivo
[9] = Oral bioavailability in Wistar rat at 10 mg/kg by LC-MS/MS analysis; format: ADME, organism-based; details: Wistar, in vivo
[10] = Half life in Wistar rat at 10 mg/kg, iv by LC-MS/MS analysis; format: ADME, organism-based; details: in vivo
[11] = Apparent volume of distribution in Wistar rat at 10 mg/kg, iv by LC-MS/MS analysis; format: ADME, organism-based; details: in vivo, read-out: Vz
[12] = Clearance in Wistar rat at 10 mg/kg, iv by LC-MS/MS analysis; format: ADME, organism-based; details: in vivo
[13] = molecular target: Cytochrome P450 3A4 (Homo sapiens, UniProt P08684)
Cytochrome P450 3A4, sequence (P08684 whole entry): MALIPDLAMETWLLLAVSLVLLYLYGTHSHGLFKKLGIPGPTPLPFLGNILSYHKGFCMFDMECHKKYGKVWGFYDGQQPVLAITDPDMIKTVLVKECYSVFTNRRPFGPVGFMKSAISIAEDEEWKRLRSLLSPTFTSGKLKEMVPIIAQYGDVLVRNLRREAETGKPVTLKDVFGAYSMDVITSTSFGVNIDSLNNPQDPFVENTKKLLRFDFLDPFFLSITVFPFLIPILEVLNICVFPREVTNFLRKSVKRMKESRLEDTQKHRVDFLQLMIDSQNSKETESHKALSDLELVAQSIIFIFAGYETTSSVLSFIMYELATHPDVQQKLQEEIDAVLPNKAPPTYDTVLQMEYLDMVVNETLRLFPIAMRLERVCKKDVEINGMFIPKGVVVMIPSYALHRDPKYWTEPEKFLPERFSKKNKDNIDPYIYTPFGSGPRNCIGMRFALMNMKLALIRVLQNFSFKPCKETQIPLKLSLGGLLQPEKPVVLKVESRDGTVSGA

[14] = molecular target: 5-hydroxytryptamine receptor 2A (Homo sapiens) (UniProt P28223); assay: Displacement of [3H]-Ketanserine from recombinant human 5-HT2A receptor expressed in CHOK1 cell membranes after 60 mins by microbeta scintillation counting analysis
5-hydroxytryptamine receptor 2A (Homo sapiens), sequence (P28223 whole entry): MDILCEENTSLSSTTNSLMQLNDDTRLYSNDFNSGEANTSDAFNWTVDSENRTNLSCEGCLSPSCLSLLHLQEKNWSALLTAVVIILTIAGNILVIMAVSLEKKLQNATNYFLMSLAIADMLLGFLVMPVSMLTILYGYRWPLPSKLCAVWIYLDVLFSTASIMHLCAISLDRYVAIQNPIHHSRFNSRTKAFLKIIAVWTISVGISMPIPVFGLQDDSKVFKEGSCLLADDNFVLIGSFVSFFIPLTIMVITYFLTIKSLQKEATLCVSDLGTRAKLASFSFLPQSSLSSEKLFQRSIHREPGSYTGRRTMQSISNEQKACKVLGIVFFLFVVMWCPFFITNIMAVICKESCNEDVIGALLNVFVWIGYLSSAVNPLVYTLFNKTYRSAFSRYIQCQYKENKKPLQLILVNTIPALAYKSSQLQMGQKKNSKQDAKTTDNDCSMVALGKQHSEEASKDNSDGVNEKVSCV

5-hydroxytryptamine receptor 6, sequence (P50406 whole entry): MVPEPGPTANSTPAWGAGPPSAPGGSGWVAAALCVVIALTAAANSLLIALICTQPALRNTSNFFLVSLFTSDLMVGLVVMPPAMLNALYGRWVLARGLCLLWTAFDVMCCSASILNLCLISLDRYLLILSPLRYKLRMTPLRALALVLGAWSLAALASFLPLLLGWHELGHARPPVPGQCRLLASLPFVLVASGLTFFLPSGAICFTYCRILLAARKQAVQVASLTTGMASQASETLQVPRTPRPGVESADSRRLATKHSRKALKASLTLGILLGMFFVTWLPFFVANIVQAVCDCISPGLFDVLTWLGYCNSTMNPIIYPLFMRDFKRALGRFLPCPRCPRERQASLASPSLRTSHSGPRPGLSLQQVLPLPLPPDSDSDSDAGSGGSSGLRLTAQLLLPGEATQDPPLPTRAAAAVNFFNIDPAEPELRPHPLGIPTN

Structure (SMILES)	Ki [1] [nM]	further results
CC(C)c1ccc(S(=O)(=O)n2cc(CN3CCN(C)CC3)c3cc(O)ccc32)cc1	50	
CN1CCN(Cc2cn(S(=O)(=O)c3ccc(Br)cc3)c3ccc(OCC(F)(F)F)cc23)CC1	96.3	
CN1CCN(Cc2cn(S(=O)(=O)c3ccc(Br)cc3)c3cc(Cl)ccc23)CC1	59.7	
CN1CCN(CCc2cn(S(=O)(=O)c3cccc(Br)c3)c3ccc(Br)cc23)CC1	289	
CN1CCN(CCc2cn(S(=O)(=O)c3ccccc3Br)c3ccc(Br)cc23)CC1	398	
Cc1ccc(C)c(S(=O)(=O)n2cc(CN3CCN(C)CC3)c3ccccc32)c1	64	
COc1ccc2c(c1)c(CN1CCN(CCF)CC1)cn2S(=O)(=O)c1ccccc1Br	348	
CN1CCN(Cc2cn(S(=O)(=O)c3c(Cl)cccc3Cl)c3ccccc23)CC1	100	
CC(C)Oc1ccc2c(c1)c(CN1CCN(C)CC1)cn2S(=O)(=O)c1ccccc1Br	36.3	
CN1CCN(Cc2cn(S(=O)(=O)c3c(F)cccc3F)c3ccccc23)CC1	64	
COc1ccc(OC)c(S(=O)(=O)n2cc(CN3CCN(C)CC3)c3ccccc32)c1	91	
CN1CCN(Cc2cn(S(=O)(=O)c3ccc(F)cc3)c3ccc(O)cc23)CC1	34.9	
COc1ccc2c(c1)c(CN1CCN(C)CC1)cn2S(=O)(=O)c1ccc(F)cc1.CS(=O)(=O)O.CS(=O)(=O)O		Activity [2]: inactive; Activity [3]: inactive; Activity [4]: inactive; Activity [5]: inactive; IC50 [6]: 12600 nM; Cmax [7]: 55 ng/mL; AUC(0-t) [8]: 249 ng·h/mL; bioavailability [9]: 13.5%; half-life [10]: 2.52 h; Vd [11]: 19.2 L/kg; clearance [12]: 92 mL/min/kg; IC50 [13]: 1710 nM
CSc1ccc2c(c1)c(CN1CCN(C)CC1)cn2S(=O)(=O)c1ccccc1Br	194	
COc1ccc2c(c1)c(CN1CCN(C)CC1)cn2S(=O)(=O)c1ccc(C(C)C)cc1.CS(=O)(=O)O.CS(=O)(=O)O		Activity [14]: Active; Activity [2]: inactive; Activity [3]: inactive; Activity [4]: inactive; Activity [5]: inactive; IC50 [6]: 33500 nM; Cmax [7]: 56.4 ng/mL; AUC(0-t) [8]: 151 ng·h/mL; bioavailability [9]: 4.9%; half-life [10]: 1.12 h; Vd [11]: 5.3 L/kg; clearance [12]: 54 mL/min/kg; IC50 [13]: 1850 nM
O=S(=O)(c1ccccc1Br)n1cc(CN2CCNCC2)c2ncccc21	95	
O=C(c1ccccc1)N1CCN(Cc2cn(S(=O)(=O)c3ccccc3Br)c3ccccc23)CC1	365	
O=S(=O)(c1ccccc1Br)n1cc(CN2CCN(Cc3ccccc3)CC2)c2ccccc21	133	

Structure (SMILES)	Ki [1] [nM]	further results
COc1ccc2c(c1)c(CN1CCN(C)CC1)nn2S(=O)(=O)c1ccccc1Br	348	
CN1CCN(Cc2cn(S(=O)(=O)c3ccccc3)c3ncccc23)CC1	277	
CN1CCN(Cc2cn(S(=O)(=O)c3ccccc3Br)c3ccc([N+](=O)[O-])cc23)CC1	200	
CN1CCN(Cc2cn(Cc3ccccc3Br)c3ccccc23)CC1	312	
CN1CCN(Cc2cn(S(=O)(=O)c3ccc(OC(F)(F)F)cc3)c3ccccc23)CC1	150	
CN1CCN(Cc2cn(C(=O)c3ccccc3Br)c3ccc(F)cc23)CC1	326	
CN1CCN(Cc2cn(S(=O)(=O)c3cccc(F)c3)c3ccccc23)CC1	58	
CN1CCN(Cc2cn(S(=O)(=O)c3ccc(F)cc3F)c3ccccc23)CC1	30	
COc1ccc2c(CN3CCN(C)CC3)cn(S(=O)(=O)c3ccc(F)cc3)c2c1	239	
CN1CCN(Cc2cn(S(=O)(=O)c3ccc(C#N)cc3)c3ccccc23)CC1	90.5	
CC(=O)N1CCN(Cc2cn(S(=O)(=O)c3ccccc3Br)c3ccccc23)CC1	385	
COc1ccc2c(CN3CCN(C)CC3)cn(S(=O)(=O)c3ccc(C(C)C)cc3)c2c1	36.1	
Cc1c(CN2CCN(C)CC2)c2ccccc2n1S(=O)(=O)c1ccc(F)cc1	55.6	
CN1CCN(Cc2cn(S(=O)(=O)c3ccc(F)cc3)c3cccc(Cl)c23)CC1	31.2	
CN1CCN(Cc2cn(S(=O)(=O)c3ccccc3)c3cc(Cl)ccc23)CC1	35.7	
CN1CCN(Cc2c[nH]c3ccccc23)CC1	482	
CN1CCN(Cc2cn(S(=O)(=O)c3ccc(F)c(F)c3)c3ccccc23)CC1	119	

Second part, led by results:

Ki [1] [nM]	Structure (SMILES)	further results
6.7	CCN1CCN(Cc2cn(S(=O)(=O)c3ccccc3Br)c3ccc(OC)cc23)CC1	
7.5	O=S(=O)(c1ccccc1)n1cc(CN2CCNCC2)c2ccccc21	
2.13	CN1CCN(Cc2cn(S(=O)(=O)c3ccc(Br)cc3)c3ccccc23)CC1	
16.3	CN1CCN(Cc2cn(S(=O)(=O)c3cccc(Cl)c3)c3ccccc23)CC1	
9.2	CC(C)c1ccc(S(=O)(=O)n2cc(CN3CCN(C)CC3)c3c(Cl)cccc32)cc1	
18.4	COc1cccc2c1c(CN1CCN(C)CC1)cn2S(=O)(=O)c1ccc(F)cc1	
1.7	CCN1CCN(Cc2cn(S(=O)(=O)c3ccc(C(C)C)cc3)c3ccc(OC)cc23)CC1	
23.5	CN1CCN(Cc2cn(S(=O)(=O)c3ccccc3Br)c3cccc(Cl)c23)CC1	
14.3	COc1cccc2c1c(CN1CCN(C)CC1)cn2S(=O)(=O)c1ccccc1Br	
9.6	Cc1ccc(S(=O)(=O)n2cc(CN3CCN(C)CC3)c3ccccc32)cc1	
19	CN1CCN(Cc2cn(S(=O)(=O)c3cccc(Br)c3)c3ccccc23)CC1	
4.5	O=S(=O)(c1ccccc1Br)n1cc(CN2CCNCC2)c2ccccc21	
18.7	CN1CCN(Cc2cn(S(=O)(=O)c3ccccc3Br)c3ccc(O)cc23)CC1	
10.2	CN1CCN(Cc2cn(S(=O)(=O)c3ccccc3Br)c3ccccc23)CC1	
17.5	CN1CCN(Cc2cn(S(=O)(=O)c3ccc(F)cc3)c3ccc(Cl)cc23)CC1	
29	CN1CCN(Cc2cn(S(=O)(=O)c3ccc(F)cc3Cl)c3ccccc23)CC1	
7.8	CN1CCN(Cc2cn(S(=O)(=O)c3ccccc3F)c3ccccc23)CC1	
20	CCN1CCN(Cc2cn(S(=O)(=O)c3ccc(F)cc3)c3ccc(OC)cc23)CC1	
17	CN1CCN(Cc2cn(S(=O)(=O)c3ccc(F)cc3)c3ccc(Br)cc23)CC1	
6.9	COc1ccc2c(c1)c(CN1CCNCC1)cn2S(=O)(=O)c1ccc(F)cc1	
27.6	CC(C)c1ccc(S(=O)(=O)n2cc(CN3CCN(C)CC3)c3cc(Br)ccc32)cc1	
12	CN1CCN(Cc2cn(S(=O)(=O)c3ccccc3Br)c3ccc(F)cc23)CC1	
29.6	COc1ccc2c(c1)c(CN1CCN(C)CC1)c(Cl)n2S(=O)(=O)c1ccc(C(C)C)cc1	
11.5	CN1CCN(Cc2cn(S(=O)(=O)c3cccc4ccccc34)c3ccccc23)CC1	
6	CC(C)c1ccc(S(=O)(=O)n2cc(CN3CCN(C)CC3)c3ccccc32)cc1	
28.2	CN1CCN(Cc2cn(S(=O)(=O)c3ccc(Cl)cc3Cl)c3ccccc23)CC1	
5.7	COc1ccc2c(c1)c(CN1CCNCC1)cn2S(=O)(=O)c1ccc(C(C)C)cc1	
9.2	CN1CCN(Cc2cn(S(=O)(=O)c3ccc(Br)cc3)c3ccc(F)cc23)CC1	
